The assay addresses T1, 5α-reductase (Homo sapiens, UniProt P31213).
T1 construct: Homogenates of human prostates obtained by radical prostatectomies; from tissue; host or cells: human prostate from radical prostatectomy for benign hyperplasia; resuspended 140,000 g pellet of the homogenate
T1 sequence (P31213 1-254): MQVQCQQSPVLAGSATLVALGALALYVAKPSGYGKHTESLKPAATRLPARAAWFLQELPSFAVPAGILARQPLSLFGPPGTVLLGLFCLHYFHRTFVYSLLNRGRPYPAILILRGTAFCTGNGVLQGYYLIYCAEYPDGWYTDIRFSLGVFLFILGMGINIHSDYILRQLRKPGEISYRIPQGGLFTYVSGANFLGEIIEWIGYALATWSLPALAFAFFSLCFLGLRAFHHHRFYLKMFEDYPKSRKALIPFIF
As to the kind of experiment: 5α-reductase activity test in vitro, human prostate homogenate, testosterone substrate, HPLC measurement of 5α-reduced metabolites. The conditions noted are these: homogenates of human prostates (BHP), pH 5.5, 37° C., 30 minutes, read-out: IC50 for inhibition of the 5α-reductase activity of the control. It is filed as biochemical. As for the experimental part:
The test for measuring the 5α-reductase activity was carried cut in vitro by incubating the enzyme and its substrate (testosterone) and by measuring by HPLC chromatography the amount of 5α-reduced metabolites formed (dihydrotestosterone (DHT) and 5α-androstane-diol). Homogenates of human prostates obtained by radical prostatectomies due to benign hyperplasia of the prostate (BHP) were used.
The prostate was collected straight after leaving the operating theater suite and packed in aluminum paper placed in a container filled with dry ice. At the laboratory, if the homogenate was not prepared immediately, the prostate could be stored at -80° C. […]
b) Mixture of "unlabelled" testosterone and "tritiated testosterone" with an isotopic dilution of 100: To obtain a 1 mM solution of testosterone, 2.88 mg of "unlabelled" testosterone were weighed out which was dissolved in 10 ml of ethanol. […] Substrate (S) was ready. […]
The amounts of metabolites produced during the incubation were measured by separating the compounds formed by reversed-phase high performance liquid chromatography (HPLC). […] The extract collected after extraction was injected automatically onto the HPLC system and by the linear radioactivity measurement system (Berthold), only the radioactive metabolites, formed from the testosterone labelled with the substrate, were evaluated. […]

Regarding oenotheine B, the IC50 – broadly, the concentration that gives 50% inhibition – turned out to be 22 µM.

The values above are taken from patent publication US5525594A, “Treatment of hyperandrogenic disorders” (Roussel Uclaf, priority 1993, dated 1996).
